Assay results taken from patent publication US20170029388A1, “Treatment of Neurodegenerative Diseases with Asparagine Endopeptidase (AEP) Inhibitors and Compositions Related Thereto” (INTERCONTINENTAL GREAT BRANDS LLC, priority 2014, published 2017).
Entries after “also recorded” stand apart in the source; their conditions may differ.

Experiments:
[1] = tested on: AEP; experiment: Oxygen-glucose deprivation (OGD) in primary neurons, AEP activity; type: cell-based; details: 0.1 μM or 1.0 μM compound
Method: (§1) A. AEP activity, measured in primary neuronal cultures with 5 μM Cbz-Ala-Ala-Asn-AMC (x-axis denotes neurons were treated with 0.1 μM or 1.0 μM specified compound). B. Caspase activity, measured in primary neuronal cultures with 5 μM Ac-Asp-Glu-Val-Asp-AMC. C. Cathepsin activity, measured in primary neuronal cultures with 5 μM D-Val-Leu-Lys-AMC. D. Inhibition of APP cleavage. Lysates of primary cortical neurons pre-incubated with compounds for 30 min, underwent OGD for 4 hrs, were reperfused for 18 hrs (normoxia neurons remained at normoxic conditions). E. APP can be cleaved in a dose-dependent manner. Lysates of primary cortical neurons pre-incubated with compounds for 30 min, underwent OGD for 4 hrs, were reperfused for 18 hrs (normoxia neurons remained at normoxic conditions).
(§2) Depriving cells of oxygen and glucose is a cellular model that is employed to trigger acidosis in cultured cells. The efficacy of the compounds in a cellular model of oxygen-glucose deprivation (OGD) was determined in an effort to mimic the effects of stroke in primary cultured neurons. As a result of depriving neurons of oxygen and glucose-containing medium, AEP activity was doubled (FIG. 7A, ‘DMSO-Norm’ compared to ‘DMSO-OGD’), while Caspase-3 and Cathepsin activities remained relatively unchanged. […]

[2] = tested on: Cathepsin; experiment: OGD in primary neurons, Cathepsin activity; type: cell-based; details: 0.1 μM or 1.0 μM compound
Method: as §1, §2

[3] = tested on: 5XFAD mice; experiment: Amyloid plaque staining and Aβ ELISA in 5XFAD mice; type: in vivo, mouse; details: oral once daily for 3 months
Method: (§3) A. Thioflavin-S staining of amyloid plaques in the hippocampus (HP), motor cortex (MC), and frontal cortex (FC) of 5XFAD mouse brain sections. Scale bar, 50 μm. B. Quantitative analysis of amyloid plaques. […] F. The percentage of time spent in the target quadrant in the probe trail.
Free-floating 30-μm-thick serial sections were treated with 0.3% hydrogen peroxide for 10 min, and then incubated with anti-AEP-cleaved APP (1:500) or anti-Aβ (1:500) overnight. The signal was developed using Histostain-SP kit (#956543, invitrogen) according to the manufacturer's instructions.
After rinsed in distilled water, the sections were transferred to blocking solution containing 1% sodium hydroxide and 0.9% hydrogen peroxide for 20 min. The sections were incubated for 5 s in 0.25% acidic acid, then washed in distilled water and stained for 5 min with 0.0125% Thioflavin-S in 50% ethanol. The sections were washed with 50% ethanol and placed in distilled water. Then the sections were covered with glass cover using mounting solution.
The mice brains were homogenized in 8X mass of 5 M guanidine HCl/50 mM Tris HCl (pH 8.0), and incubated at room temperature for 3 h. Then the samples were diluted with cold reaction buffer (phosphate buffered saline with 5% BSA and 0.03% Tween 20, supplemented with protease inhibitor cocktail), and centrifuged at 16 000 g for 20 min at 4° C. The supernatant were analysed by human Aβ42 ELISA kit according to the manufacturer's instructions (KHB3441, Invitrogen). The Aβ42 concentrations were determined by comparison with the standard curve.

[4] = tested on: 5XFAD mice; experiment: Morris water maze in 5XFAD mice; type: in vivo, mouse
From the text: as §3
Female wild-type and 5XFAD mice maintained on standard drinking water or compound #11 were trained in a round, water-filled tub (52 inch diameter) in an environment rich with extra maze cues. An invisible escape platform was located in a fixed spatial location 1 cm below the water surface independent of a subjects start position on a particular trial. In this manner, subjects needed to utilize extra maze cues to determine the platform's location. At the beginning of each trial, the mouse was placed in the water maze with their paws touching the wall from 1 of 4 different starting positions (N, S, E, W). Each subject was given 4 trials/day for 5 consecutive days with a 15-min inter-trial interval. […] Upon reaching the invisible escape platform, subjects were left on it for an additional 5 s to allow for survey of the spatial cues in the environment to guide future navigation to the platform. After each trial, subjects were dried and kept in a dry plastic holding cage filled with paper towels to allow the subjects to dry off The temperature of the water was monitored every hour so that mice were tested in water that was between 22 and 25° C. Following the 5 days of task acquisition, a probe trial was presented during which time the platform was removed and the percentage of time spent in the quadrant which previously contained the escape platform during task acquisition was measured over 60 s. All trials were analysed for latency, swim path length, and swim speed by means of MazeScan (Clever Sys, Inc.).

[5] = tested on: C57BL/6J mice; experiment: Acute and chronic toxicity in C57BL/6J mice; details: 100 mg/kg

Nc1ccc(N2CCOCC2)c2nonc12 [Compound 11]
AEP activity in OGD-treated neurons [1]: marked dose-dependent decrease
Cathepsin activity in OGD-treated neurons [2]: not observed
amyloid plaque deposition (Thioflavin S) ([3]; hippocampus, motor cortex, frontal cortex): decreased; also recorded: attenuated
concentration of Aβ 1-40 in brain lysates [3]: decreased
concentration of Aβ 1-42 in brain lysates [3]: decreased
Morris water maze, distance to platform ([4]; 5 acquisition days, vs vehicle): decreased distance to platform
swim speed ([4]; mouse, in vivo): not altered; also recorded: not affected
Morris water maze probe test, time in target quadrant ([4]; vs vehicle): spend more time in the target quadrant; also recorded: spent more time in the target quadrant
systemic toxicity [5]: does not exhibit systemic toxicity
body weight ([5]; oral gavage, 30-day period): no significant change
complete blood count (CBC) parameters ([5]; oral gavage, 30-day period): within the normal range
immunohistochemical staining, drug-treated vs vehicle-treated ([5]; oral gavage, 30-day period): no major differences
